Results on 24 molecules are retold here after ChEMBL document CHEMBL5390239, “A Novel 7H-[1,2,4]Triazolo[3,4-b]thiadiazine-based Cystic Fibrosis Transmembrane Conductance Regulator Potentiator Directed toward Treatment of Cystic Fibrosis” (ACS Med Chem Lett, 2023).

Structures are written as SMILES. Activity calls are given as the source filed them. The rule behind the calls is not given here.

Sequence of Cystic fibrosis transmembrane conductance regulator (Homo sapiens), P13569 [N1303K] (P13569 whole entry N1303K): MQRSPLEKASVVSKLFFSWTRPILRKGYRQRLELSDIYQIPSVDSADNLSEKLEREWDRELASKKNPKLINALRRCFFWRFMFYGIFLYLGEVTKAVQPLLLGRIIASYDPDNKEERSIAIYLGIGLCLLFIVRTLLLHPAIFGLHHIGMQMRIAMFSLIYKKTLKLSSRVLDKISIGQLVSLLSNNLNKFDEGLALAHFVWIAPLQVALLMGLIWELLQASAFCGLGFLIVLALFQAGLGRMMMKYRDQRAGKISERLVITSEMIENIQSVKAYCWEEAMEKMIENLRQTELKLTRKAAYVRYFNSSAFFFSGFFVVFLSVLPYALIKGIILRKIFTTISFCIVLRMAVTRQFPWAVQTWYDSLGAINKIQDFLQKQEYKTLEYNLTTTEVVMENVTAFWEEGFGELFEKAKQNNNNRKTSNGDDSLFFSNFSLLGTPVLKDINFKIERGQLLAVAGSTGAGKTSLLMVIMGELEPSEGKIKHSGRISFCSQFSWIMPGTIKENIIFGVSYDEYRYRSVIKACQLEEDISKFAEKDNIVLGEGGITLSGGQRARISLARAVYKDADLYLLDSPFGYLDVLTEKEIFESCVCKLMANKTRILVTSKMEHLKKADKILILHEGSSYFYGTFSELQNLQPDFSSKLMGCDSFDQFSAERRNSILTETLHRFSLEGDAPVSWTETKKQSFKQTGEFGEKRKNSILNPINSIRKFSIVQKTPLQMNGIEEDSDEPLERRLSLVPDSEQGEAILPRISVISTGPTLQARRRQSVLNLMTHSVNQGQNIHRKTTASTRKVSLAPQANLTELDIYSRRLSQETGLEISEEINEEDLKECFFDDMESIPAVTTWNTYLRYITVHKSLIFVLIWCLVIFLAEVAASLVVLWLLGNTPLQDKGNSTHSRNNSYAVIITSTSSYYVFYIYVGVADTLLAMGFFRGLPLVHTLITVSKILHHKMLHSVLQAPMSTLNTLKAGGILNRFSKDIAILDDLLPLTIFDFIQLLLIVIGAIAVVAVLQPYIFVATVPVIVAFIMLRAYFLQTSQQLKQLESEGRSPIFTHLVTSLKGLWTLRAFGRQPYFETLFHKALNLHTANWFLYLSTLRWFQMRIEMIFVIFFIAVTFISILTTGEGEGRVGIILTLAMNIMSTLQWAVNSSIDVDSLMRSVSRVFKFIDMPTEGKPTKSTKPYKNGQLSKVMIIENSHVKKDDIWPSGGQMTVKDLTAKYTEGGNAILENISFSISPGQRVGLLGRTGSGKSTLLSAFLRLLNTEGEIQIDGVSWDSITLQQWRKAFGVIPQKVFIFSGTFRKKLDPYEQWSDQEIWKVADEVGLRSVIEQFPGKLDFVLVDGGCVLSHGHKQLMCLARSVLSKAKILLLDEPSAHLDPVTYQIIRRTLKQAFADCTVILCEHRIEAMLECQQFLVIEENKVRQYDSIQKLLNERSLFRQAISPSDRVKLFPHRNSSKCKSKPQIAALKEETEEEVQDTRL

The subject of one assay is Cystic fibrosis transmembrane conductance regulator (Homo sapiens), P13569 [N1303K]. As to the kind of experiment: Corrector activity at HRP tagged CFTR N1303K mutant (unknown origin) expressed in FRT cells assessed as stabilization of CFTR mutant in plasma membrane by measuring enhanced HRP signal at 5 uM incubated for 24 hrs by ELISA. The note with it: filed as activator.
Turning to `CCc1nnc2n1N=C(c1ccc(OC)c(OC)c1)CS2`, the outcome was Active.

For another assay, the system named is Cystic fibrosis transmembrane conductance regulator (Homo sapiens), P13569 [G551D]. As to the kind of experiment: Potentiation of CFTR G551D mutant (unknown origin) expressed in FRT cells assessed as increase in chloride current at 10 uM in presence of VX-770 by voltage clamp electrophysiology recording relative to VX-770 alone. It counts as cell-based. To be noted: filed as activator.
Sequence of Cystic fibrosis transmembrane conductance regulator (Homo sapiens), P13569 [G551D] (P13569 whole entry G551D): as the sequence (P13569 whole entry N1303K) above, with G551D, K1303N counted along it
As to `FC(F)(F)C1=Nn2c(nnc2-c2cc(Cl)ccc2Br)SC1`, the Activity amounted to 171%.

As for `CCC1=Nn2c(nnc2-c2ccc(Cl)cc2)SC1`, the Activity turned out to be 149%.

As for `CCC1=Nn2c(nnc2-c2cccc(Cl)c2Cl)SC1`, the Activity was 129%.

Turning to `CCC1=Nn2c(nnc2-c2ccc(OC)c(OC)c2)SC1`, the Activity was found to be 107%.

For the molecule `CCc1nnc2n1N=C(c1ccc(Cl)c(Cl)c1)CS2`, the Activity was found to be 103%.

For `CCC1=Nn2c(nnc2-c2ccc(Cl)c(Cl)c2)SC1`, the Activity was found to be 187%.

Take `COc1ccc(F)c(-c2nnc3n2N=C(C(C)C)CS3)c1`: the Activity came to 237%.

For `CCC1=Nn2c(nnc2-c2ccc(Cl)cc2Cl)SC1`, the Activity stood at 257%.

Regarding `CC(C)C1=Nn2c(nnc2-c2ccc(Cl)cc2Cl)SC1`, the Activity came out at 204%.

In the case of `CC(C)C1=Nn2c(nnc2-c2cc(Cl)ccc2Br)SC1`, the Activity stood at 267%.

For `CC1=Nn2c(nnc2-c2ccc(Cl)cc2Cl)SC1`, the Activity was found to be 137%.

As for `CCC1=Nn2c(nnc2-c2cccc(Cl)c2)SC1`, the Activity is 162%.

As for `COc1ccc(OC)c(-c2nnc3n2N=C(C(C)C)CS3)c1`, the Activity worked out at 166%.

Consider `CCC1=Nn2c(nnc2-c2cc(OC)c(OC)c(OC)c2)SC1`, for which the Activity turned out to be 119%.

`FC(F)(F)C1=Nn2c(nnc2-c2ccc(Cl)cc2Cl)SC1`: the Activity was found to be 159%.

As for `CC(C)(C)C1=Nn2c(nnc2-c2ccc(Cl)cc2Cl)SC1`, the Activity is 379%.

Regarding `CC(C)(C)C1=Nn2c(nnc2-c2cc(Cl)ccc2Br)SC1`, the Activity was found to be 267%.

Take `COc1cc(Br)c(-c2nnc3n2N=C(C(C)C)CS3)cc1OC`: the Activity is 106%.

`COc1ccc(Br)c(-c2nnc3n2N=C(C(C)C)CS3)c1`: the Activity was determined as 232%.

Take `CC(C)C1=Nn2c(nnc2-c2cc(Cl)ccc2Cl)SC1`: the Activity amounted to 196%.

`CCc1nnc2n1N=C(c1ccc(OC)c(OC)c1)CS2`: the Activity is 204%.

Regarding `CCC1=Nn2c(nnc2-c2cc(Cl)ccc2Br)SC1`, the Activity is 118%.

Turning to `COc1ccc(C2=Nn3c(nnc3-c3ccc(Cl)cc3Cl)SC2)cc1`, the Activity was found to be 142%.

As for `CC1=Nn2c(nnc2-c2cc(Cl)ccc2Br)SC1`, the Activity amounted to 155%.

The target of the next assay is Cystic fibrosis transmembrane conductance regulator (Homo sapiens, UniProt P13569, G551D). As to the kind of experiment: Potentiation of CFTR G551D mutant (unknown origin) expressed in FRT cells assessed as increase in chloride current in presence of VX-770 by voltage clamp electrophysiology recording. It counts as cell-based.
Sequence of Cystic fibrosis transmembrane conductance regulator (P13569 whole entry G551D): as the sequence (P13569 whole entry N1303K) above, with G551D, K1303N counted along it
Details: not given
`CCc1nnc2n1N=C(c1ccc(OC)c(OC)c1)CS2`: the EC50 was roughly 940 nM.

A word on the EC50: it is the concentration giving half of the maximal effect.
